We go through three compounds from patent publication US20040248209A1, “Use of g protein-coupled receptor protein” (priority 2001, published 2004).

Common to all, as to type: cell-based
The target of experiment [1] is T1, H7TMB56 (Homo sapiens, UniProt Q96LA9).
T1 construct: expressed in transfected cells
As to the kind of experiment: CRE promoter luciferase reporter gene assay in HEK293 cells transiently expressing H7TMB56. Conditions: HEK293 cells bearing the H7TMB56 gene (SEQ ID NO: 2) versus other receptor control; 2×10^−4 to 10^−5 M; 4 hours; FIGS. 5 to 7. An excerpt:
The H7TMB56-specific stimulating activity by the isoprenoid-related substances was detected using as an indicator the expression level of reporter gene product (luciferase) produced by expression induction of CRE promoter.
HEK293 cells were suspended in growth medium (DMEM (Dulbecco's Modified Eagle Medium) (Gibco BRL) supplemented with 10% fetal bovine serum (Gibco BRL)) and plated on a 96-well plate of black well (Beckton-Dickinson, Inc.) coated with collagen in 1×10^5 cells/well. […]
The transfected HEK293 cells were washed with an assay buffer (DMEM supplemented with 0.1 % bovine serum albumin), and commercially available compounds containing farnesyl pyrophosphate (Sigma) and geranylgeranyl pyrophosphate (Sigma) diluted with the assay buffer were added to the cells, respectively, in 2×10^−4 to 10^−5 M, followed by incubation at 37° C. for 4 hours in 5% CO2. After the supernatant was discarded, 50 μl of PicaGene LT2.0 (Toyo Ink Mfg. Co., Ltd.) was added as a substrate for assaying the luciferase activity and a luminescence level of the luciferase was measured on a plate reader (ARVO sx Multi-Label Counter, Wallac, Inc.).
(In a reporter assay the amount or activity of a reporter protein is the signal.)

The target in experiment [2] is T1, H7TMB56. As to the kind of experiment: intracellular cAMP production promoting activity in CHO cells stably expressing H7TMB56 (clone 22) versus mock cells. As to conditions: for intracellular cAMP production promoting activity, dose dependency: CHO cell clone highly expressing H7TMB56, FIG. 13; for agonist activity to H7TMB56 (cAMP production), specificity and dose dependency: CHO clone 22 versus mock cells, FIGS. 8 and 9; for cAMP production promoting activity (specific agonist activity): dose of 10 μM, H7TMB56 CHO cells (FIG. 10) versus mock cells (FIG. 11). How it is done:
The same expression vector as used in EXAMPLE 1 was transfected to CHO dhfr^− cells using Gene Transfer (Wako Pure Chemical Industries, Ltd.), which was cultured in nucleic acid-free medium to select transformants. […] The intracellular cAMP level was assayed using cAMP Screen Kit (Applied Biosystems, Inc.). […] Furthermore, the cAMP production promoting activities on H7TMB56 (FIG. 10) and mock cells (FIG. 11) were assayed with respect to various isoprenoid-related substances in a dose of 10 μM (1: isopentenyl pyrophosphate, 2: dimethylallyl pyrophosphate, 3: geranyl pyrophosphate, 4: farnesyl pyrophosphate, 5: geranylgeranyl pyrophosphate, 6: geraniol, 7: farnesol, 8: geranylgeraniol, 9: trans, trans-farnesol, 10: trans, trans-farnesyl bromide, 11: geranyl acetone, 12: geranyl acetate, 13: geranylamine and 14: geranyl chloride). As a result, the agonist activity specific to geranyl pyrophosphate was detected as well, in addition to farnesyl pyrophosphate and geranylgeranyl pyrophosphate (FIG. 10).
In a manner similar to EXAMPLE 2, the intracellular cAMP production promoting activity was assayed on 5 isoprenoid-related substances.

Experiment [3] concerns the target T1, H7TMB56. As to the kind of experiment: activation (phosphorylation) of p44/42 MAP kinase in H7TMB56 expression CHO cells versus mock cells, western blotting. As to conditions: 0.1 μM, 0, 5, 10 minutes, FIG. 14. The method, then: H7TMB56 expression CHO cells and mock cells were plated on a 6-well plate in 3×10^5 cells/well, followed by incubation overnight. In order to make serum free, the medium was replaced by nucleic acid-free α-MEM medium supplemented with 0.1% BSA and incubation was further continued overnight. Immediately before the assay, pre-incubation was again carried out for 2 hours. After 0.1 μM of farnesyl pyrophosphate was added to the medium to initiate the treatment, the medium was removed by suction at regular time intervals and then a sample buffer for SDS-PAGE was added to terminate the reaction. SDS-PAGE was performed in a conventional manner to transfer the protein onto a nitrocellulose filter. Thereafter, phosphorylated p44/42 MAP kinase was detected following the instructions described in the manual of PhosphoPlus p44/42 MAPK (Thr202/Tyr204) Antibody Kit (Cell Signaling, Inc.).
A general note: Immunoblotting shows a protein as a band on a membrane.

The target in experiment [4] is T1, H7TMB56. As to the kind of experiment: internalization of H7TMB56-GFP fused protein in CHO cells, confocal microscope. As to conditions: 10^−6 M added to the medium. An excerpt:
An expression plasmid was constructed to express a fused protein of Green Fluorescent Protein (GFP) cDNA isolated from jelly fish Auquorea victoria, fused to H7TMB56 at the C-terminus to fit the translation frame. In this case, a fragment excised out of GFP expression vector pQBI25 (Takara Shuzo Co., Ltd.) was used as GFP cDNA. In H7TMB56, its termination codon was modified by PCR to recognition sequence with restriction enzyme NheI, and the GFP fragment was ligated thereto, which was inserted into the expression vector pAKKO-111H described in EXAMPLE 1. The thus obtained plasmid of the H7TMB56 and GFP -fused protein expression vector was transfected to CHO cells by the following procedure. CHO cells were suspended in a growth medium [DMEM (Dulbecco's Modified Eagle Medium) (GIBCO BRL, Inc.) supplemented with 10% fetal bovine serum, and plated on a Lab-Tekii cover glass chamber with 4 chambers (Nalgen Nunc, Inc.) in a concentration of 0.6×10^5 cells/chamber. After incubation overnight at 37° C. in 5% CO2, transfection was performed. For transfection, Lipofectamine™ 2000 Reagent (GIBCO BRL, Inc., Inc.) was used. First, 2 μl of Lipofectamine™ 2000 Reagent was mixed with 50 μl of OPTI-MEM-I (GIBCO BRL, Inc.). […]

T1 sequence (Q96LA9 whole entry): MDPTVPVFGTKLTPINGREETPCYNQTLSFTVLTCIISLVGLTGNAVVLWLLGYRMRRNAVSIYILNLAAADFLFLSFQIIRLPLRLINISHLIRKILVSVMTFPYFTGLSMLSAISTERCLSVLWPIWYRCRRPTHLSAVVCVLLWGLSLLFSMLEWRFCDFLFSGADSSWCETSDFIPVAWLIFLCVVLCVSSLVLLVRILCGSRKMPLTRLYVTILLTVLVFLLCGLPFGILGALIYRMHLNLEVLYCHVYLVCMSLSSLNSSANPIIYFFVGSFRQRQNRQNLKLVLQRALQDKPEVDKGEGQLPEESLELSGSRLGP

Regarding `CC(C)=CCC/C(C)=C/CC/C(C)=C/CC/C(C)=C/COP(=O)(O)OP(=O)(O)O` [geranylgeranyl pyrophosphate], the “luciferase activity (expression level of reporter gene product by CRE promoter)” value at H7TMB56 [1] was “increased”. At H7TMB56 [2], the “intracellular cAMP production promoting activity, dose dependency” value is reported as “promoted the production of cAMP dose-dependently”; the “agonist activity to H7TMB56 (cAMP production), specificity and dose dependency” value was “confirmed the specificity in the agonist activities”; the “cAMP production promoting activity (specific agonist activity)” value was “detected”.
Take `CC(C)=CCC/C(C)=C/COP(=O)(O)OP(=O)(O)O` [geranyl pyrophosphate]: on H7TMB56 [2], the “intracellular cAMP production promoting activity, dose dependency” value is on record as “promoted the production of cAMP dose-dependently” and the “cAMP production promoting activity (specific agonist activity)” value was “detected”.
As to `CC(C)=CCC/C(C)=C/CC/C(C)=C/COP(=O)(O)OP(=O)(O)O` [farnesyl pyrophosphate], on H7TMB56 [1], the “luciferase activity (expression level of reporter gene product by CRE promoter)” value is “increased”. At H7TMB56 [2], the “intracellular cAMP production promoting activity, dose dependency” value is listed as “promoted the production of cAMP dose-dependently”; the “agonist activity to H7TMB56 (cAMP production), specificity and dose dependency” value was “confirmed the specificity in the agonist activities”; the “cAMP production promoting activity (specific agonist activity)” value is reported as “detected”. For the same compound, at H7TMB56 [3], the “phosphorylation of p44/42 MAP kinase” value is recorded as “phosphorylation of MAP kinase was detected”. The “internalization of H7TMB56-GFP from cell membrane to cytoplasm” value at H7TMB56 [4] is listed as “internalization occurred”.
